“And” between values parts separate entries of the source, which are not always exact repeats. Identical values can stand only once. Inconclusive results and toxic doses are left out. How the source made its calls: active means survival T/C of 150% or more; inactive means T/C below 125% in these data.
Tested on: CD2F1 mice, L1210 leukemia ip, survival T/C
Experiment: NCI In Vivo Anticancer Drug Screen. Data for tumor model L1210 Leukemia (intraperitoneal) in CD2F1 (CDF1) mice
Details: higher = longer survival
Summary of the method: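 Activity against a transplanted murine tumor was judged by comparing the compound group with a vehicle group. The outcome in the treated animals was divided by that in the controls.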

[1] = endpoint: mean survival time, dose: 100.0 mg/kg/injection, schedule: Q01DX001 (ip), vehicle: saline with Tween-80
[2] = endpoint: mean survival time, dose: 200.0 mg/kg/injection, schedule: Q01DX001 (ip), vehicle: saline with Tween-80
[3] = endpoint: mean survival time, dose: 400.0 mg/kg/injection, schedule: Q01DX001 (ip), vehicle: saline with Tween-80
[4] = endpoint: mean survival time, dose: 100.0 mg/kg/injection, schedule: Q04DX003 (ip), vehicle: saline with Tween-80
[5] = endpoint: mean survival time, dose: 200.0 mg/kg/injection, schedule: Q04DX003 (ip), vehicle: saline with Tween-80
[6] = endpoint: mean survival time, dose: 400.0 mg/kg/injection, schedule: Q04DX003 (ip), vehicle: saline with Tween-80
[7] = endpoint: mean survival time, dose: 100.0 mg/kg/injection, schedule: Q01DX009 (ip), vehicle: saline with Tween-80
[8] = endpoint: mean survival time, dose: 200.0 mg/kg/injection, schedule: Q01DX009 (ip), vehicle: saline with Tween-80
[9] = endpoint: mean survival time, dose: 400.0 mg/kg/injection, schedule: Q01DX009 (ip), vehicle: saline with Tween-80

Measured: T/C

C1CCC2C(C1)NC1CCCCC12 (stereo not given)
inactive: endpoint: mean survival time, dose: 25.0 mg/kg/injection, schedule: Q01DX009 (ip), vehicle: saline 89 % of control | endpoint: mean survival time, dose: 50.0 mg/kg/injection, schedule: Q01DX009 (ip), vehicle: saline 89 % of control

O=C1OC(=O)C2CCCC3CCCC1C32 (stereo not given)
inactive: endpoint: mean survival time, dose: 100.0 mg/kg/injection, schedule: Q04DX002 (ip), vehicle: saline with Tween-80 108 % of control | endpoint: mean survival time, dose: 200.0 mg/kg/injection, schedule: Q04DX002 (ip), vehicle: saline with Tween-80 108 % of control

CC(/C=N\N=C(N)N)=N/N=C(N)N
inactive: endpoint: median survival time, dose: 5.0 mg/kg/injection, schedule: Q01DX009 (ip), vehicle: saline 94 % of control

CCNc1ncnc2nncnc12
inactive: endpoint: mean survival time, dose: 100.0 mg/kg/injection, schedule: Q01DX001 (ip), vehicle: carboxymethylcellulose (CMC) 98 % of control

COc1ccc(C(O)(c2ccccc2)C(OC(=O)c2cc([N+](=O)[O-])cc([N+](=O)[O-])c2)c2ccccc2)cc1 (stereo not given)
inactive: [1] 87 % of control | [2] 94 % of control | [3] 91 % of control

CC(=O)OCCOCCOCc1ccccc1
inactive: endpoint: mean survival time, dose: 100.0 mg/kg/injection, schedule: Q01DX001 (ip), vehicle: other 96 % of control | endpoint: mean survival time, dose: 200.0 mg/kg/injection, schedule: Q01DX001 (ip), vehicle: other 102 % of control | endpoint: mean survival time, dose: 400.0 mg/kg/injection, schedule: Q01DX001 (ip), vehicle: other 98 % of control

Cc1c(O)c2c(c(O)c1Cc1ccc(CN)cc1)C(=O)c1ccccc1C2=O
inactive: endpoint: mean survival time, dose: 1.56 mg/kg/injection, schedule: Q01DX009 (ip), vehicle: water 103 % of control | endpoint: mean survival time, dose: 3.13 mg/kg/injection, schedule: Q01DX009 (ip), vehicle: water 101 % of control | endpoint: mean survival time, dose: 6.25 mg/kg/injection, schedule: Q01DX009 (ip), vehicle: water 95 % of control | endpoint: mean survival time, dose: 12.5 mg/kg/injection, schedule: Q01DX009 (ip), vehicle: water 103 % of control | endpoint: mean survival time, dose: 25.0 mg/kg/injection, schedule: Q01DX009 (ip), vehicle: water 87 % of control

CCOC(=O)C1=C(C)NC(C)=C(C(=O)OCC)C1c1cccc([N+](=O)[O-])c1
inactive: endpoint: mean survival time, dose: 100.0 mg/kg/injection, schedule: Q01DX009 (ip), vehicle: Klucel (hydroxypropylcellulose) (HPC) 105 % of control | endpoint: mean survival time, dose: 200.0 mg/kg/injection, schedule: Q01DX009 (ip), vehicle: Klucel (hydroxypropylcellulose) (HPC) 91 % of control

COc1ccc2c(c1OC)CC1N(S(=O)(=O)c3ccc(C)cc3)CCC13c1ccccc1N(C(C)=O)C23 (stereo not given)
inactive: endpoint: mean survival time, dose: 75.0 mg/kg/injection, schedule: Q01DX001 (ip), vehicle: other 95 % of control | endpoint: mean survival time, dose: 150.0 mg/kg/injection, schedule: Q01DX001 (ip), vehicle: other 89 % of control and 95 % of control | endpoint: mean survival time, dose: 300.0 mg/kg/injection, schedule: Q01DX001 (ip), vehicle: other 97 % of control and 100 % of control

[Br][Sn]([Br])([c]1cccc2ccccc12)[c]1cccc2ccccc12
inactive: [4] 105 % of control | [5] 109 % of control | [6] 97 % of control

CC1(C)C=C(Cc2ccccc2)C(=O)c2ccccc21
inactive: [7] 94 % of control | [4] 96 % of control | [8] 97 % of control | [5] 100 % of control | [9] 97 % of control | [6] 97 % of control

CC(C)(C)C1=CC(=N/S(=O)(=O)c2ccccc2)/C(N=[N+]=[N-])=C(Cl)C/1=N\S(=O)(=O)c1ccccc1
inactive: endpoint: mean survival time, dose: 25.0 mg/kg/injection, schedule: Q01DX001 (ip), vehicle: saline with Tween-80 101 % of control | endpoint: mean survival time, dose: 50.0 mg/kg/injection, schedule: Q01DX001 (ip), vehicle: saline with Tween-80 93 % of control | [1] 93 % of control | [2] 95 % of control | [3] 100 % of control

O=[N+]([O-])c1ccc2c(c1)C(Br)c1cc(Br)ccc1-2 (stereo not given)
inactive: [7] 93 % of control | [4] 100 % of control | [8] 88 % of control | [5] 100 % of control | [9] 90 % of control | [6] 92 % of control

Nc1ccc(S(=O)(=O)N(CCO)CCO)cc1[N+](=O)[O-]
inactive: [4] 96 % of control | [5] 98 % of control | [6] 95 % of control
